The text below walks through data of patent publication US8501911B2, “Methods of reducing inflammation and mucus hypersecretion” (Biomarck Pharmaceuticals, Ltd, priority 1999, dated 2013).

Residues, ends and D or L forms follow the SMILES beside them. *: point of attachment. Myristoyl = CCCCCCCCCCCCCC(=O)*

Assay [1] relates to human bronchial epithelial cells. Nature of the assay: Basal (constitutive) mucin secretion by human bronchial epithelial cells. The class given is cell-based. To be noted: one hour incubation. Here is the method:
Mucus secreted from the airway epithelial cells in vitro after stimulation by activators was assessed using an ELISA (antibody capture method) (E. Harlow, D. Lane. “Antibodies: A Laboratory Manual.” New York: Cold Spring Harbor Laboratory Press, 1988), wherein the collected mucus is bound directly to the ELISA plate. Mucus was detected using an antibody raised against monkey airway mucus (Lin et al. Am J Respir Cell Mol Biol 1:41, 1989).
The MANS peptide (100 μM) was also found to decrease constitutive (basal) mucus secretion by one hour incubation. Cells were treated as described above except that no PMA or 8-Br-cGMP was used. […] Results, designated as Results-M-1B, are presented as follows and show the inhibition of basal mucin secretion by human bronchial epithelial cells exposed to the MANS peptide (SEQ ID NO: 1) or a negative control peptide consisting of the same amino acids as the MANS peptide, but in random order (RNS peptide; random N-terminal sequence (SEQ ID NO: 26):
The effect of MA-PSD peptide (1, 10 and 100 μM) on basal mucin secretion was also measured. Cells as described above were incubated for one hour with the MA-PSD peptide (no PMA or 8-Br-cGMP).

For a further assay, the system named is NHBE cells. In words: PMA+8-Br-cGMP-induced mucin secretion from NHBE cells (ELISA). The class given is cell-based, human. To be noted: pre- and co-incubation with 100 nM PMA+1 μM 8-Br-cGMP (Results-M-1A/M-3A). Here is the method: Peptide Blocking Studies—NHBE cells were preincubated with either the MANS or the RNS peptide (1-100 μM) for 15 min, and then PMA (100 nM)+8-Br-cGMP (1 μM) or UTP (100 μM) was added, and cells were incubated for an additional 15 min or 2 h. respectively. Mucin secretion was measured by ELISA and experimental results are designated as Results-I-2B-1 and Results-I-2B-2, as follows. […]
Measurement of Mucin Secretion by ELISA—Before collection of “base line” and “test” mucin samples, the accumulated mucus at the apical surface of the cells was removed by washing with phosphate-buffered saline, pH 7.2. To collect the base-line secretion, cells were incubated with medium alone, and secreted mucin in the apical medium was collected and reserved. Cells were rested for 24 h and then exposed to medium containing the selected stimulatory and/or inhibitory reagents (or appropriate controls), after which secreted mucin was collected and reserved as the test sample. Incubation times for the base line and the test were the same but varied depending on the test reagent utilized. Both base line and test secretions were analyzed by ELISA using an antibody capture method as known in the art. See, e.g., Harlow et al., Antibodies: A Laboratory Manual, pp. 570-573, Cold Spring Harbor Laboratory, Cold Spring Harbor, N.Y. (1988). The primary antibody for this assay was 17Q2 (Babco, Richmond, Calif.), a monoclonal antibody that reacts specifically with a carbohydrate epitope on human airway mucins. The ratio of test/base-line mucin, which is similar to a “secretory index”, was used to quantify mucin secretion, allowing each culture dish to serve as its own control and thus, minimizing deviation caused by variability among culture wells. Wright et al., Am. J. Physiol. 271, L854-L861 (1996). Levels of mucin secretion were reported as percentage of the medium control.
MARCKS-related Peptides—Both the myristoylated N-terminal sequence (MANS) and the random N-terminal sequence (RNS) peptides were synthesized at Genemed Synthesis, Inc. (San Francisco, Calif.), then purified by high pressure liquid chromatography (>95% pure), and confirmed by mass spectroscopy with each showing one single peak with an appropriate molecular mass. The MANS peptide consisted of sequence identical to the first 24 amino acids of MARCKS, i.e. the myristoylated N-terminal region that mediates MARCKS insertion into membranes, MA-[…] (SEQ ID NO: 1) (where MA=N-terminal myristate chain). The corresponding control peptide (RNS) contained the same amino acid composition as the MANS but arranged in random order, MA-[…] (SEQ ID NO: 26). The presence of the hydrophobic myristate moiety in these synthetic peptides enhances their permeability to the plasma membranes, enabling the peptides to be taken up readily by cells. To determine the effects of these peptides on mucin secretion, cells were preincubated with the peptides for 15 min prior to addition of secretagogues, and mucin secretion was then measured by ELISA.
Antisense Oligonucleotides—MARCKS antisense oligonucleotide and its corresponding control oligonucleotide were synthesized at Biognostik GmbH (Gottingen, Germany). NHBE cells were treated with 5 μM antisense or control oligonucleotide apically for 3 days (in the presence of 2 μg/ml lipofectin for the first 24 h). Cells were then incubated with secretagogues, and mucin secretion was measured by ELISA. Total RNA and protein were isolated from treated cells. MARCKS mRNA was assessed by Northern hybridization according to conventional procedures using human MARCKS cDNA as a probe. MARCKS protein level was determined by Western blot using purified anti-MARCKS IgG1 (clone 2F12) as the primary detection antibody.
The effect on mucus secretion of a myristoylated peptide containing the first 24 amino acids of the human MARCKS protein (MANS; myristoylated N-terminal sequence; SEQ ID NO: ) was tested. Cultured normal human bronchial epithelial cells as described above were used. […]

Assay [2] has as its target T1, cGMP-dependent protein kinase (PKG) (Homo sapiens, UniProt Q13976).
T1 construct: endogenous in cells; host or cells: NHBE cells
T1 sequence (Q13976 1-671): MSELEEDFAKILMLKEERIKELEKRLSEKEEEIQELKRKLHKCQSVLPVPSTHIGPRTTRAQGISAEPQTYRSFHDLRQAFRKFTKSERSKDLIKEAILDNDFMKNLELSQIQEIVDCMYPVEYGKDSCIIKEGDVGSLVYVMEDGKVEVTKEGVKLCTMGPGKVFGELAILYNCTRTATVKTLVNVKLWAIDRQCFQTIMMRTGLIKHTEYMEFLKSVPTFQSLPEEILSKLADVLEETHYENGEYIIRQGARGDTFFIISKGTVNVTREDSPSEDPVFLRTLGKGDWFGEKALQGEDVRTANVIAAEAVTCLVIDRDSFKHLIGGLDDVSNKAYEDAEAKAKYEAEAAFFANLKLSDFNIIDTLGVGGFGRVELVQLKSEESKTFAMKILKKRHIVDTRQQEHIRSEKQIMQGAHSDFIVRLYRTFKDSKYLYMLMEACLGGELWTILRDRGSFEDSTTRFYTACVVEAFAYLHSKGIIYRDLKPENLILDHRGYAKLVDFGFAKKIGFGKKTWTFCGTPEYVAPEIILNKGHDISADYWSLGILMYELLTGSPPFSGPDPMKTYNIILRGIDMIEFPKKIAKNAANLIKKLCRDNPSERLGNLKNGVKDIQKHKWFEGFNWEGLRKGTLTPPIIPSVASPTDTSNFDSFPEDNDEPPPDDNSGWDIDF
Nature of the assay: PKG activity in NHBE cells. The class given is cell-based. The conditions noted are these: 100 μM. Here is the method: Phosphorylation of MARCKS by PMA was attenuated by Calphostin C (500 nM). NHBE cells also contained substantial amounts of cGMP-dependent protein kinase type 1α (PKG-1α) activity, which was localized to the cytosolic fraction. […] In addition, the phosphorylation of MARCKS induced by PMA was reversed by incubation with 8-Br-cGMP (10 μM).

Take `CCCCCCCCCCCCCC(=O)N[C@@H](CCCCN)C(=O)N[C@@H](CCCCN)C(=O)N[C@@H](CCCCN)C(=O)N[C@@H](CCCCN)C(=O)N[C@@H](CCCCN)C(=O)N[C@@H](CCCNC(=N)N)C(=O)N[C@@H](Cc1ccccc1)C(=O)N[C@@H](CO)C(=O)N[C@@H](Cc1ccccc1)C(=O)N[C@@H](CCCCN)C(=O)N[C@@H](CCCCN)C(=O)N[C@@H](CO)C(=O)N[C@@H](Cc1ccccc1)C(=O)N[C@@H](CCCCN)C(=O)N[C@@H](CC(C)C)C(=O)N[C@@H](CO)C(=O)NCC(=O)N[C@@H](Cc1ccccc1)C(=O)N[C@@H](CO)C(=O)N[C@@H](Cc1ccccc1)C(=O)N[C@@H](CCCCN)C(=O)N[C@@H](CCCCN)C(=O)N[C@@H](CC(N)=O)C(=O)N[C@@H](CCCCN)C(=O)N[C@@H](CCCCN)C(=O)O` [MA-PSD peptide] (Myristoyl-KKKKKRFSFKKSFKLSGFSFKKNKK-OH; C-terminus assumed): the “Basal mucin secretion level relative to control” value in assay [1] (peptide 1 μM) was determined as 102%; in assay [1] (peptide 10 μM), 91%; in assay [1] (peptide 100 μM, no PMA or 8-Br-cGMP) it was 285%. For the same molecule, the “Mucin secretion level relative to media control” value with NHBE cells (peptide 1 μM) amounted to 226%; in the assay with NHBE cells (peptide 10 μM), 316%; with NHBE cells (peptide 100 μM), 191%.

On to `CCCC(=O)Nc1nc2c(ncn2[C@@H]2O[C@@H]3COP(=O)(O)O[C@H]3[C@H]2OC(=O)CCC)c(=O)[nH]1` [dibutryl cGMP], for which the PKG activity entry in assay [2] is “increased”.
